Measurements taken from PubChem BioAssay (NCI).
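How tested: cells in 96-well plates exposed to compound for 48 hours at five concentrations. GI50 marks 50% less growth. TGI denotes the concentration required for complete inhibition of growth.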

Columns and labels:
Assay in all cases: NCI tumour cell line growth inhibition, 48 h
[1] = test system: 786-0 renal
[2] = test system: A498 renal
[3] = test system: A549 NSCLC
[4] = test system: ACHN renal
[5] = test system: CAKI-1 renal
[6] = test system: CCRF-CEM leukemia
[7] = test system: COLO 205 colon
[8] = test system: DU-145 prostate
[9] = test system: EKVX NSCLC
[10] = test system: HCT-116 colon
[11] = test system: HCT-15 colon
[12] = test system: HL-60(TB) leukemia
[13] = test system: HOP-62 NSCLC
[14] = test system: HOP-92 NSCLC
[15] = test system: HS 578T breast
[16] = test system: HT29 colon
[17] = test system: IGROV1 ovarian
[18] = test system: K-562 leukemia
[19] = test system: KM12 colon
[20] = test system: LOX IMVI melanoma
[21] = test system: M14 melanoma
[22] = test system: MALME-3M melanoma
[23] = test system: MCF7 breast
[24] = test system: MDA-MB-231 breast
[25] = test system: MDA-MB-435
[26] = test system: MDA-N
[27] = test system: MOLT-4 leukemia
[28] = test system: NCI-H226 lung
[29] = test system: NCI-H23 lung
[30] = test system: NCI-H460 lung
[31] = test system: NCI-H522 lung
[32] = test system: OVCAR-3 ovarian
[33] = test system: OVCAR-4 ovarian
[34] = test system: OVCAR-5 ovarian
[35] = test system: OVCAR-8 ovarian
[36] = test system: PC-3 prostate
[37] = test system: RXF 393 renal
[38] = test system: SF-268 CNS
[39] = test system: SF-295 CNS
[40] = test system: SF-539 CNS
[41] = test system: SK-MEL-2 melanoma
[42] = test system: SK-MEL-28 melanoma
[43] = test system: SK-MEL-5 melanoma
[44] = test system: SK-OV-3 ovarian
[45] = test system: SN12C renal
[46] = test system: SNB-19 CNS
[47] = test system: SNB-75 CNS
[48] = test system: SR leukemia
[49] = test system: SW-620 colon
[50] = test system: T-47D breast
[51] = test system: TK-10 renal
[52] = test system: U251 CNS
[53] = test system: UACC-257 melanoma
[54] = test system: UACC-62 melanoma
[55] = test system: UO-31 renal
[56] = test system: HCC-2998 colon
[57] = test system: NCI/ADR-RES ovarian
[58] = test system: RPMI-8226 leukemia
[59] = test system: BT-549 breast

`COc1ccc(Oc2cccc(C3C4C(=O)N(c5ccc(C)c(Cl)c5)C(=O)C4ON3C(C(N)=O)c3ccccc3)c2)cc1` (stereo not drawn) gave a TGI [1] greater than 50000 nM, a TGI [2] greater than 50000 nM and a TGI [3] greater than 50000 nM. The TGI [4] was greater than 50000 nM, the TGI [5] was greater than 50000 nM and the TGI [6] was greater than 50000 nM. The TGI [7] was 42600 nM, the TGI [8] was 44500 nM and the TGI [9] was 26600 nM. The TGI [10] was 45200 nM, the TGI [11] was 25900 nM and the TGI [12] was greater than 50000 nM. The TGI [13] was greater than 50000 nM, the TGI [14] was greater than 50000 nM and the TGI [15] was greater than 50000 nM. The TGI [16] was 19800 nM, the TGI [17] was greater than 50000 nM and the TGI [18] was greater than 50000 nM. It also gave a TGI [19] greater than 50000 nM, a TGI [20] greater than 50000 nM and a TGI [21] greater than 50000 nM. It also gave a TGI [22] greater than 50000 nM, a TGI [23] of 47900 nM and a TGI [24] greater than 50000 nM. For the same compound, the TGI [25] was greater than 50000 nM, the TGI [26] was 23600 nM and the TGI [27] was 43400 nM. The TGI [28] was 44800 nM, the TGI [29] was 20200 nM and the TGI [30] was greater than 50000 nM. For the same compound, the TGI [31] was 32600 nM, the TGI [32] was greater than 50000 nM and the TGI [33] was greater than 50000 nM. The TGI [34] was greater than 50000 nM, the TGI [35] was greater than 50000 nM and the TGI [36] was greater than 50000 nM. For the same compound, the TGI [37] was 30100 nM, the TGI [38] was greater than 50000 nM and the TGI [39] was greater than 50000 nM. For the same compound, the TGI [40] was 21800 nM, the TGI [41] was 38300 nM and the TGI [42] was greater than 50000 nM. For the same compound, the TGI [43] was 32200 nM, the TGI [44] was greater than 50000 nM and the TGI [45] was 29300 nM. The TGI [46] was greater than 50000 nM, the TGI [47] was 26200 nM and the TGI [48] was 35600 nM. It also gave a TGI [49] greater than 50000 nM, a TGI [50] of 33000 nM and a TGI [51] greater than 50000 nM. The TGI [52] was greater than 50000 nM, the TGI [53] was 29300 nM and the TGI [54] was 34900 nM. The TGI [55] was greater than 50000 nM.

Work on `Nc1nc(Nc2ccccc2)c2[nH]cnc2n1` yielded a TGI [1] greater than 100000 nM, a TGI [2] of 81700 nM and a TGI [3] greater than 100000 nM. The TGI [4] was greater than 100000 nM, the TGI [5] was greater than 100000 nM and the TGI [6] was greater than 100000 nM. The TGI [7] was greater than 100000 nM, the TGI [8] was greater than 100000 nM and the TGI [9] was greater than 100000 nM. It also gave a TGI [56] greater than 100000 nM, a TGI [10] greater than 100000 nM and a TGI [11] greater than 100000 nM. For the same compound, the TGI [12] was greater than 100000 nM, the TGI [13] was greater than 100000 nM and the TGI [14] was 92400 nM. It also gave a TGI [16] greater than 100000 nM, a TGI [17] greater than 100000 nM and a TGI [18] greater than 100000 nM. For the same compound, the TGI [19] was greater than 100000 nM, the TGI [20] was greater than 100000 nM and the TGI [21] was greater than 100000 nM. The TGI [22] was greater than 100000 nM, the TGI [23] was greater than 100000 nM and the TGI [24] was greater than 100000 nM. The TGI [25] was greater than 100000 nM, the TGI [26] was greater than 100000 nM and the TGI [27] was greater than 100000 nM. For the same compound, the TGI [28] was greater than 100000 nM, the TGI [29] was greater than 100000 nM and the TGI [31] was greater than 100000 nM. It also gave a TGI [57] greater than 100000 nM, a TGI [32] greater than 100000 nM and a TGI [33] greater than 100000 nM. The TGI [35] was greater than 100000 nM, the TGI [36] was greater than 100000 nM and the TGI [58] was greater than 100000 nM. For the same compound, the TGI [37] was greater than 100000 nM, the TGI [39] was greater than 100000 nM and the TGI [40] was greater than 100000 nM. It also gave a TGI [41] greater than 100000 nM, a TGI [42] greater than 100000 nM and a TGI [43] greater than 100000 nM. For the same compound, the TGI [44] was greater than 100000 nM, the TGI [45] was greater than 100000 nM and the TGI [46] was greater than 100000 nM. The TGI [47] was greater than 100000 nM, the TGI [49] was greater than 100000 nM and the TGI [50] was greater than 100000 nM. For the same compound, the TGI [51] was greater than 100000 nM, the TGI [52] was greater than 100000 nM and the TGI [53] was greater than 100000 nM. For the same compound, the TGI [54] was greater than 100000 nM and the TGI [55] was greater than 100000 nM.

For `COC(=O)CCCCC(=O)c1c(C)[nH]c(/C=C2\N=C(c3ccc[nH]3)C=C2OC)c1C`, the GI50 [1] was 437 nM, the TGI [1] was 1610 nM and the GI50 [2] was 2490 nM. For the same compound, the TGI [2] was 6390 nM, the GI50 [3] was 1250 nM and the TGI [3] was 3280 nM. For the same compound, the GI50 [4] was 1000 nM, the TGI [4] was 2320 nM and the GI50 [59] was 418 nM. It also gave a TGI [59] of 1850 nM, a GI50 [5] of 1030 nM and a TGI [5] of 2490 nM. It also gave a GI50 [6] of 159 nM, a TGI [6] of 2320 nM and a GI50 [7] of 1640 nM. The TGI [7] was 3290 nM, the GI50 [8] was 482 nM and the TGI [8] was 1810 nM. It also gave a GI50 [9] of 1140 nM, a TGI [9] of 2610 nM and a GI50 [56] of 1960 nM. The TGI [56] was 4190 nM, the GI50 [10] was 109 nM and the GI50 [11] was 359 nM. It also gave a TGI [11] of 1400 nM, a GI50 [12] of 273 nM and a TGI [12] of 1030 nM. The GI50 [13] was 475 nM, the TGI [13] was 1870 nM and the GI50 [14] was 414 nM. It also gave a TGI [14] of 1500 nM, a GI50 [15] of 1020 nM and a TGI [15] of 3050 nM. It also gave a GI50 [16] of 198 nM, a TGI [16] of 1410 nM and a GI50 [17] of 1220 nM. For the same compound, the TGI [17] was 2570 nM, the GI50 [18] was 403 nM and the TGI [18] was 1770 nM. The GI50 [19] was 540 nM, the TGI [19] was 1960 nM and the GI50 [20] was 41.6 nM. For the same compound, the TGI [20] was 135 nM, the GI50 [21] was 289 nM and the TGI [21] was 952 nM. For the same compound, the GI50 [22] was 746 nM, the TGI [22] was 2160 nM and the GI50 [23] was 723 nM. It also gave a TGI [23] of 2090 nM, a GI50 [24] of 269 nM and a TGI [24] of 1650 nM. It also gave a GI50 [25] of 328 nM, a TGI [25] of 1220 nM and a GI50 [27] of 103 nM. The TGI [27] was 1740 nM, the GI50 [28] was 1170 nM and the TGI [28] was 2870 nM. The GI50 [29] was 1460 nM, the TGI [29] was 3600 nM and the GI50 [30] was 3030 nM. For the same compound, the TGI [30] was 10100 nM, the GI50 [31] was 673 nM and the TGI [31] was 2190 nM. It also gave a GI50 [57] of 504 nM, a TGI [57] of 1910 nM and a GI50 [32] of 880 nM. The TGI [32] was 2240 nM, the GI50 [33] was 1140 nM and the TGI [33] was 2470 nM. It also gave a GI50 [34] of 870 nM, a TGI [34] of 2380 nM and a GI50 [35] of 451 nM. The TGI [35] was 1760 nM, the GI50 [36] was 470 nM and the TGI [36] was 1880 nM. For the same compound, the GI50 [58] was 428 nM, the TGI [58] was 2340 nM and the GI50 [37] was 524 nM. For the same compound, the TGI [37] was 2000 nM, the GI50 [38] was 802 nM and the TGI [38] was 2170 nM. For the same compound, the GI50 [39] was 1520 nM, the TGI [39] was 3050 nM and the GI50 [40] was 1150 nM. The TGI [40] was 2470 nM, the GI50 [41] was 456 nM and the TGI [41] was 1830 nM. The GI50 [42] was 1170 nM, the TGI [42] was 2470 nM and the GI50 [43] was 357 nM. For the same compound, the TGI [43] was 1370 nM, the GI50 [44] was 2250 nM and the TGI [44] was 4400 nM. It also gave a GI50 [45] of 1100 nM, a TGI [45] of 2470 nM and a GI50 [46] of 1530 nM. The TGI [46] was 3160 nM, the GI50 [47] was 851 nM and the TGI [47] was 2240 nM. It also gave a GI50 [48] of 29 nM, a TGI [48] of 313 nM and a GI50 [49] of 395 nM. The TGI [49] was 1540 nM, the GI50 [50] was 723 nM and the TGI [50] was 2360 nM. It also gave a GI50 [51] of 2060 nM, a TGI [51] of 6380 nM and a GI50 [52] of 868 nM. For the same compound, the TGI [52] was 2150 nM, the GI50 [53] was 1730 nM and the TGI [53] was 3330 nM. For the same compound, the GI50 [54] was 1250 nM, the TGI [54] was 2690 nM and the GI50 [55] was 334 nM. For the same compound, the TGI [55] was 1240 nM.
